Reference: patent US20250288645A1, “USE OF GsMTx4 AND GsMTx4 CONJUGATES TO IMPROVE RECOVERY FROM JOINT INJURY” (priority 2023, published 2025)

What was measured:
[1] = tested on: humeral head chondrocytes; test: Explanted humeral head impact loading (2 mJ) after incubation with channel agonists; assay type: cell-based, mouse; conditions: 10 μM yoda1 or 5 nM GSK101, 15 minutes, 2 mJ load; for humeral head chondrocyte cell death following impact loading, female mice: relative to control media; for humeral head chondrocyte cell death following impact loading, male mice: relative to controls (DMSO 0.25%)
Method: Ethical approval was obtained from the appropriate institutional committee Humeri were harvested from wild-type 12-22 week old C57Bl/6 male and female mice. Each specimen was placed in calcium imaging buffer with 2 mM calcium chloride and subsequently incubated with 10 μM calcein-AM for 30 minutes at 37° C. To indicate intracellular esterase activity of living cells, each specimen was incubated with 10 μM yoda1, a Piezo1-specific agonist, 5 nM GSK101, a TRPV4-agonist, or control (DMSO 0.25%, n=7-10/group) in calcium imaging buffer for 15 minutes. Specimens were then incubated with 1.5 nM ethidium homodimer-1 for 3 minutes to indicate loss of plasma membrane integrity in dead cells. The specimen was then arranged in a custom 3-D printed holding device such that the chondrocytes within the apex of sphericity of the humeral head were facing the glass well of a dish to be imaged on an inverted confocal microscope. A baseline confocal image with overlay of 100 μm Z-stacks was obtained with 488 and 594 nm wavelengths to image live and dead cells, respectively. The humerus was then transferred to a custom impact loading apparatus. A 2 mJ load was applied to the lateral aspect of the proximal humerus, such that the convex apex of the humeral head cartilage was impacted against the glass microscope dish. A 2 mJ load was chosen based on preliminary work by Kotelsky to define mechanic-vulnerability of distal femur and proximal humerus articular chondrocytes in the custom loading apparatus. The samples were again incubated in ethidium homodimer-1. A post-injury confocal image with overlay of 100 μm Z-stacks was obtained. A custom MATLAB image processing algorithm was developed to quantify cell viability. The confocal images were processed as maximum intensity projections with threshold via Otsu's method. Then, watershed segmentation, distance transform, and centroid approximation algorithms were created and applied to segment and quantify individual cells based on intensity values. This facilitated the cell counting process, allowed quantification of the total cell area, and allowed adjustment of the region of interest between before- and after-impact micrographs.

[2] = tested on: chondrocytes; test: Cartilage pre-treated with Yoda1: chondrocyte vulnerability to mechanical injury; assay type: cell-based, murine; conditions: cartilage pre-treated with Yoda1, versus vehicle-treated controls in contralateral limbs

Structure (SMILES) | humeral head chondrocyte cell death following impact loading, female mice [1] | humeral head chondrocyte cell death following impact loading, male mice [1] | chondrocyte vulnerability to mechanical injury [2]
CC(C)C[C@H](NC(=O)c1cc2ccccc2s1)C(=O)N1CCN(C(=O)[C@H](CO)NS(=O)(=O)c2ccc(Cl)cc2Cl)CC1 [Gsk101] | nor was incubation with Gsk101 chondroprotective | statistically significant decrease in humeral head chondrocyte cell death | –
Clc1cccc(Cl)c1CSc1nnc(-c2cnccn2)s1 [Yoda1] | not a significant increase in chondrocyte cell death | statistically significant increase in humeral head chondrocyte cell death | significantly higher chondrocyte vulnerability
